# Test results as given in patent publication US20030180260A1, “Immunotherapy or treating bacterial or viral infection at mucosal surfaces with probiotics, and compositions therefor” (priority 2000, published 2003).
# Marks after values point to notes of the source that are not given here.
# Legend:
# S typhimurium = experiment: Translocation of S typhimurium to spleen in mice fed L fermentum and vaccinated with killed oral Salmonella vaccine; type: in vivo, BALB/c mice; conditions: for S typhimurium in spleen (±SEM): live oral challenge
# Experimental: BALB/c female mice (6-8 weeks old) were fed 10^8 L fermentum VRI012 (obtained from University of New South Wales, School of Microbiology and Immunology Culture Collection, Sydney, Australia) before or co-administered with 10^8 killed S typhimurium vaccine four times over a 2 week period. Two weeks after oral administration, the mice were challenged with live S typhimurium administered by the oral route. After sacrifice, the level of colonisation with S typhimurium in the spleen was determined.
# [1] = system: Non-typeable Haemophilus influenzae (NTHi); experiment: Clearance of NTHi from lungs of rats given a single intraduodenal dose of L. fermentum; type: in vivo, dark agouti (DA) rats
# Experimental: Groups of 6 male, specific pathogen free, dark agouti (DA) rats were given a single dose of PBS or live L. fermentum (2.5×10^10) directly into the duodenal lumen after exposure of the intestine by laparotomy. Twenty-one days later the rats were infected intratracheally with 5×10^8 live Non-typeable Haemophilus influenzae (NTHi). Four hours later the rats were killed by pentobarbitone overdose. The lungs were lavaged with 10 mL PBS to obtain broncho-alveolar lavage fluid (BAL). The lavaged lungs were then homogenised in 10 mL of PBS. Twenty microlitres of ten-fold serial dilutions of BAL and lung homogenate (LH) were plated on chocolate agar plates and incubated in a 10% CO2 incubator at 37° C. overnight. Colonies were counted and the number of live bacteria in the BAL and LH preparations determined. The recovery of live NTHi bacteria, presented as colony forming units (CFU), was as follows: […]
# Helicobacter pylori = experiment: Metronidazole therapy of H. pylori infection in mice pre-treated with probiotic; type: in vivo; conditions: for H. pylori colonisation: L acidophilus 1×10^9 orally 3 times a week for 2 weeks, Metronidazole 0.08 mg/animal for 1 week; for % eradication: compared with saline-treated control group
# Experimental: H. pylori infected mice (5 per group) were treated with Lactobacillus acidophilus (1×10^9 per animal) by oral feeding 3 times a week for 2 weeks prior to treatment with Metronidazole (0.08 mg/animal) for 1 week.
# IFN-γ [2] = experiment: IFN-γ production by OVA-stimulated spleen lymphocytes of mice fed L. acidophilus (ELISA); type: in vivo, C57/BI6 mice; conditions: fed intragastrically, OVA-sensitised; spleen lymphocytes stimulated with OVA 5 μg/mL for 4 days; FIG. 1B
# Experimental: (§1) To determine whether probiotic bacteria down-regulate Th2 and up-regulate Th1 cytokine response, C57/BI6 mice were fed intragastrically using a feeding needle, various numbers of Lactobacillus acidophilus (obtained from University of New South Wales, School of Microbiology and Immunology Culture Collection, Sydney, Australia) on consecutive days for 2 weeks after which they were sensitised with 8 μg of ovalbumin (OVA) and aluminium hydroxide in 0.2 mL phosphate-buffered saline administered by peritoneal injection. The mice were further fed ten times with L. acidophilus every two days for two weeks before they were sacrificed. Lymphocytes were isolated by teasing spleens through a sieve, washed with PBS, and resuspended at 10×10^6 One mL aliquots of the cell suspension were dispensed into wells of a 24-well flat-bottomed microtitre plate and stimulated with OVA (5 μg/mL). After incubation for 4 days the supernatants were collected and assayed for IL-4 and IFN-γ production by standard ELISA techniques using IL-4 or IFN-γ monoclonal antibody pairs. Briefly, wells of a 24-well microtitre plate were coated with a capture anti-IL-4 antibody. […] The colour development was read at 450/620 nm in an ELISA plate reader. The level of IL-4 in unknown samples was quantitated by interpolation using a standard curve. […]
# Candida albicans = experiment: Resistance to oral C. albicans infection following feeding with probiotic bacteria; type: in vivo, DBA/2 mice; conditions: 5×10^9 intragastrically every 2 days for 2 weeks
# Experimental: (§2) DBA/2 mice H2d male mice (n=3-5 per group) were fed intragastrically every 2 days for 2 weeks with 5×10^9 L. acidophilus in 0.2 mL PBS. One day after the last feed mice were challenged with 10^8 Candida albicans blastospores by swabbing the oral cavity using a fine-tip sterile swab. At various days after infection the number of C. albicans in the oral mucosa was determined. The oral cavity (cheek, tongue and soft palate) was completely swabbed using a fine-tipped cotton swab. The cotton swab was placed in 1 mL PBS and the yeast cells were resuspended by mixing in a vortex mixer before culture of serial 10-fold dilutions on Sabourand dextrose agar supplemented with chloramphenicol at 37° C. The results were expressed as CFU/mL (FIG. 5)
# H influenzae = experiment: Clearance of non-typable H influenzae from the lungs of rats fed L acidophilus; type: in vivo, DA rats
# Experimental: DA rats (200-250 gm, 8-10 weeks old, Animal Resource Centre, Perth, Wash.) were fed intragastrically L acidophilus in 0.75 mL PBS (2.5×10^10 per rat) or PBS alone every 2 days for 7 days at which time the rats were immuniised with formalin-killed H influenzae ([…]) administered intralumenally (see groups below). Rats continued to be fed every 2 days for 2 weeks and then boosted with 50 μL of formalin killed H influenzae (5×10^8 per rat) administered by the intratracheal route. After further feeding with L acidophilus for a further 7 days, the rats were challenged with 50 μL of live 5×10^8 H influenzae in the lung.
# Immunisation Groups (5 Rats/Group):
# 2H influenzae (intralumenal)+H influenzae (intra-tracheal boost)
# 3 PBS (intralumenal)+L. acidophilus fed every 2 days
# 4H influenzae (intralumenal)+H influenzae (intratracheal boost)+L. acidophilus fed every 2 days
# After 4 hrs post challenge, the rats were sacrificed and the levels of colonisation in the lung was examined in bronchial lavage (BAL) and lung homogenate (LH). The level of clearance was determined by a plating serial 10-fold dilutions of the lavage fluid or lung homogenate onto chocolate agar plates. The results were expressed as number of colony forming units (CFU.
# IFN-γ [3] = experiment: IFN-γ in saliva and cervical lymph node cells after C. albicans challenge (ELISA); type: in vivo, DBA/2 mice
# Experimental: A further study on responses to Candida albicans infection was conducted in the model described in Example 3.
# Candida antigen was prepared from freshly cultured Candida albicans by sonication in a MSE Soniprep. The sonicate was centrifuged for 10 min at 2000 g after which time the supernatant was collected and dialysed against PBS. After protein estimation, the solution was filtered sterilised and stored at −20° C. until needed.
# A single cell suspension of cervical lymph node (CLN) cells was prepared by teasing lymph node tissue through a sieve. The cells were collected in RPMI 1640 medium supplemented with 10% foetal calf serum (FCS), washed twice by centrifugation and cultured at 4×10^6 cells per well in the presence of 2.5 μg/mL of Candida antigen in a 24-well plate for 3 days.
# The culture supernatants were collected and assayed for IL-4, IL-12 and IFN-γ by ELISA using matched antibody pairs and recombinant cytokines as standards (Pharmingen, San Diego, Calif.). The sensitivity of the cytokine ELISA was […] and the results were expressed in net amounts from which the background was subtracted.
# Samples of saliva were obtained according to the procedure described in example 2.
# Salmonella typhimurium = experiment: Translocation of Salmonella typhimurium to spleen in mice fed L acidophilus (VRI 011) and given killed Salmonella vaccine; type: in vivo, BALB/c mice
# Description: Female BALB/c mice 6-8 weeks old were obtained from the Animal Resource Centre, Perth, Wash. Lactobacillus acidophilus strain (VRI 011) and the pathogen Salmonella tyhimurium were obtained from the School of Microbiology and Immunology Type Culture Collection, University of New South Wales.
# Mice were given 5 doses of L acidophilus (VRI 011) (1×10^8 cfu per dose) or PBS over a 2 week period after which time mice were immunised intragastrically with a killed oral Salmonella vaccine. Two weeks after immunisation, the mice were sacrificed and the spleens collected for enumeration of L acidophilus and S tyhimurium.
# [4] = system: H. pylori (Sydney strain 1); experiment: Clearance of pre-established H. pylori stomach infection in mice dosed with L. acidophilus; type: in vivo, C57BL/6 mice
# Experimental: Two groups of 5 female C57BL/6 mice were infected with H. pylon (Sydney strain 1) by administration of approx. 10^9 live H. pylori on three consecutive days (days 1, 2 and 3) by gavage. On days 28, 30, 32, 35, 37 and 39 mice were dosed by gavage with live L. acidophilus (5×10^9 in 0.2 mL water) or water (control group).
# Twenty-one days later ([…]) mice were killed by pentobarbitone overdose (administered intra-peritoneally) and their stomachs removed. The stomach was dissected into two equal halves and one half was placed in 1 mL of deionised water and homogenised. Serial 10-fold dilutions of stomach homogenate were plated out on chocolate agar plates containing fungizone, vancomycin, bacitracin and nalidixic acid. After incubation for 3 days at 37° C. under microaerophilic conditions, the colonies were counted and the total number of live H. pylori in the original stomach homogenate determined.
# IL-4 = IL-4 production by OVA-stimulated spleen lymphocytes of mice fed L. acidophilus (ELISA); type: in vivo, C57/BI6 mice; conditions: fed intragastrically, OVA-sensitised; spleen lymphocytes stimulated with OVA 5 μg/mL for 4 days; FIG. 1A
# Experimental: as §1
# NO = experiment: Nitric oxide (NO) secretion in saliva after Candida albicans challenge (Griess reaction); type: in vivo, DBA/2 mice; conditions: oral 5×10^9 CFU, FIG. 2
# Experimental: as §2, with “(n=3 to 5 per group) were fed Lactobacillus acidophilus and then challenged with Candida albicans as described in Example 3 below. At various times following oral infusion, saliva was collected after injection with pilocarpine to stimulate saliva flow. The concentration of NO in saliva was determined by the Griess reaction according to the method by Gree et al (1982) Anal. Biochem 126:131-138. DBA/2 mice […]” for “H2d”
# C albicans = experiment: Clearance of C. albicans in mice treated with NO synthase inhibitor; type: in vivo; conditions: ip daily for 3 days after infection; two mouse strains (H2d); FIG. 9
# Experimental: To identify the immune parameters of protection, the levels of IFN-γ were determined at various times following infection with C. albicans. […] Since nitric oxide production is associated with host defence in parasitic infection, quantitation of NO was performed following infection in two mouse strains sharing the same H2d MHC haplotype. In this experiment mice were infected with C albicans and then followed by ip injection with an inhibitor of NO synthase, by injecting NG-monomethyl-L-arginine monoacetate (MNLA) daily for 3 days after which time the clearance rate of yeasts was determined.
compound,measurement,setting,value
Lactobacillus fermentum [L. fermentum],S typhimurium in spleen (±SEM),S typhimurium; 10^8 co-administered with 10^8 killed S typhimurium vaccine,4.5 ± 0.22 p < 0.05 vs Control Log CFU/g wet wt
same,S typhimurium in spleen (±SEM),S typhimurium; 10^8 fed before 10^8 killed S typhimurium vaccine,3.8 ± 0.12 p < 0.05 vs Control Log CFU/g wet wt
same,level of translocation compared with mice fed PBS,S typhimurium; fed prior to immunisation or co-administered with killed S typhimurium,low levels of translocation
same,"LH, live NTHi recovered","[1]; lung homogenate, CFU, single dose 2.5×10^10 into duodenal lumen, challenge day 21, 4 hours",0.82 ± 0.37 p = 0.017* 10^6
same,"BAL CFU, live NTHi recovered","[1]; single dose 2.5×10^10 into duodenal lumen, challenge day 21, 4 hours",0.49 ± 0.19 CFU (10^6)
same,clearance of acute NTHi respiratory infection,[1]; single dose delivered to the gut,enhanced clearance
"Cc1ncc([N+](=O)[O-])n1CCO [Metronidazole, reference compound]",H. pylori colonisation,Helicobacter pylori,11.4 ± 2.5 ×10^5 CFU/animal
same,% eradication,Helicobacter pylori,55^b %
same,% eradication,Helicobacter pylori; listed as metronidazole,55%
Lactobacillus acidophilus [L. acidophilus],H. pylori colonisation,Helicobacter pylori,10.5 ± 1.4 ×10^5 CFU/animal
same,% eradication,Helicobacter pylori,58^a %
same,% eradication,Helicobacter pylori; listed as probiotic,58%
same,production of IFN-γ,IFN-γ [2],enhanced
same,resistance to C. albicans infection (oral mucosa CFU) compared to mice fed PBS,"Candida albicans; all time points, FIG. 5",more resistant to infection at all time points
same,clearance of yeasts from oral cavity by day 6,Candida albicans; day 6,almost completely cleared
same,BAL H influenzae,"H influenzae; bronchial lavage, 4 hrs post challenge with 5×10^8 live H influenzae",0.7 ± 0.3 CFU/mL × 10^8
same,LH H influenzae,"H influenzae; lung homogenate, 4 hrs post challenge with 5×10^8 live H influenzae",12.5 ± 5.7 CFU/mL × 10^6
same,resistance to H influenzae infection in the lungs,H influenzae; rats fed L acidophilus and immunised with killed H influenzae,more resistance to infection
same,"resistance to infection, repeated oral doses versus single bolus",H influenzae; repeated oral feeding compared with a single bolus,more resistant to infection than rats given a single bolus
same,onset of IFN-γ response after C. albicans challenge,"IFN-γ [3]; fed mice challenged with C. albicans, controls no detectable IFN-γ until day 6",early response (day 2)
same,IFN-γ response in uninfected mice,"IFN-γ [3]; fed mice, no C. albicans challenge, FIGS. 6 and 7",no IFN-γ response
same,duration of IFN-γ response after C. albicans challenge versus controls not fed,IFN-γ [3]; still seen in nodes at day 15 and in saliva at day 8,more sustained IFN-γ response
same,protection against translocation of S typhimurium compared with mice fed PBS,"Salmonella typhimurium; fed before or simultaneously with killed oral S typhimurium vaccine, live oral challenge",better protection against translocation
same,effect of feeding on the vaccine-induced decrease of translocation,Salmonella typhimurium; feeding in addition to killed oral vaccine,further enhanced
same,Number of H. pylori in stomach homogenate,"[4]; 5×10^9 by gavage on days 28-39 after infection, killed day 50",105 ± 14 10^4 CFU
same,level of H. pylori infection of the stomach versus control mice,[4]; therapeutic dosing on pre-established infection,lower level of H. pylori infection
same,IL-4 production,IL-4,suppression of IL-4 production in dose-dependent manner
same,"secretion of NO into saliva, early after challenge",NO; early after C. albicans challenge,increased
same,"secretion of NO into saliva, later stage",NO; later stage after C. albicans challenge,significantly reduced
"CC(=O)O.CNC(=N)NCCC[C@H](N)C(=O)O [MNLA, NG-monomethyl-L-arginine monoacetate]",clearance of yeasts compared with untreated mice,C albicans,delayed clearance of yeasts
